Results from article PMC12595484, “Optimizing multifunctional fluorescent ligands for intracellular labeling” (Proceedings of the National Academy of Sciences of the …, 2025).

Experiment: Spectroscopy of HaloTag ligands and HaloTag conjugates
Type: physicochemical
Conditions: 10 mM HEPES, pH 7.3
Protocol: Detailed descriptions of the materials and methods are provided in the supporting information. Multifunctional rhodamine–HaloTag ligands (13HTL–16HTL and 18HTL–20HTL) were synthesized using palladium-catalyzed cross-coupling reactions to install 3-carboxyazetidine moieties onto rhodamine scaffolds, followed by amide bond formation with biotin–PEG2–NH2, (S)-JQ1–PEG2–NH2, or (R)-JQ1–PEG2–NH2. Spectroscopic properties (λabs, λem, ε, and Φf) were determined in 10 mM HEPES, pH 7.3. The lactone–zwitterion equilibrium constants (KL–Z) were measured in 1:1 (v/v) dioxane–water mixtures. Octanol–water distribution coefficients (logD7.4) were determined by miniaturized shake-flask partitioning experiments using PBS (pH 7.4) and 1-octanol. Cell culture experiments employed HEK293T, U2OS, and Neuro2a cells transfected with HaloTag fusion constructs and labeled with ligands (100 nM to 1 μM, 0.5 to 2 h at 37 °C), followed by fluorescence microscopy using confocal or lattice light-sheet microscopy. Affinity purification studies utilized streptavidin magnetic beads to capture biotin-labeled HaloTag conjugates, with analysis by SDS-PAGE and in-gel fluorescence detection. […]
HaloTag protein purification. The bacterial expression vector pRSET-A (Invitrogen) was used to recombinantly express HaloTag (HT7; Promega).1 The soluble 6×His-Tagged HaloTag protein was affinity purified by immobilized metal affinity chromatography (IMAC) on a 5 -mL Fast Flow HiTrap Sepharose 6 column (Cytiva) with a 0–200 mM imidazole elution gradient using an Avant Protein Purification System (ÄKTA). A280 peak fractions were pooled, concentrated by a spin concentrator, and dialyzed 3× into tris-buffered saline (TBS). The amino acid sequence of HaloTag (HT7) expressed from pRSET-A is noted below; the annotated DNA and amino acid sequences […]
Spectroscopy of HaloTag ligands and HaloTag conjugates. Compounds 13HTL–16HTL, 18HTL, and 19HTL were prepared as stock solutions in DMSO and diluted such that the final DMSO […]
All measurements were taken at ambient temperature (22
± 2 °C). Absorption spectra were recorded on a Cary Model 100 spectrometer (Agilent) using 1-cm path length 1.0-mL quartz microcuvettes from Starna Cells. Fluorescence spectra were recorded on a Cary Eclipse fluorometer (Varian) using 1-cm path length 3.5-mL quartz cuvettes (Starna Cells). As before,2-4 HaloTag protein was used as a 100 μM solution in 1× TBS. HaloTag ligands 13HTL–16HTL, 18HTL, and 19HTL (5 μM) were dissolved in 10 mM HEPES, pH 7.3, containing 0.1 mg/mL CHAPS. An aliquot of HaloTag protein (1.5 equiv) was added, and the resulting mixture was incubated until a consistent absorbance signal was observed (60–120 min).
To measure the fold-increase of absorbance upon HaloTag binding, a “no HaloTag” control experiment was performed where an equivalent volume of TBS blank was added in place of the protein. Reported values for extinction coefficient (ε) are averages of at least two measurements. […]
Quantum yield determination. All reported absolute fluorescence quantum yield values (Φf) were measured in our laboratory under identical conditions using a Quantaurus-QY spectrometer (model C11374, Hamamatsu). This instrument uses an integrating sphere to determine photons absorbed and emitted by a sample. Measurements were performed using dilute samples (absorbance < 0.1), and self-absorption corrections were performed using the instrument software.5 Reported values are averages of at least two measurements.
Determination of logD7.4. The log of distribution coefficients at pH 7.4 was determined in octanol–phosphate-buffered saline (PBS) using a miniaturized shake flask setup described previously.6, 7 Briefly, 150 mL each of octanol and PBS pH 7.4 were stirred vigorously for 12–16 h. The layers were allowed to stand for at least 24 h for phase separation. The separated layers were collected and served as PBS saturated with octanol (PBS*) and octanol saturated with PBS […]

SMILES | Φf | ε | λabs [nm] | λem [nm]
C[Si]1(C)c2cc(N3CC(F)C3)ccc2C2(OC(=O)c3ccc(C(=O)NCCOCCOCCCCCCCl)cc32)c2ccc(N3CC(F)C3)cc21 [6HTL, JF635–HaloTag ligand, reference compound] | 0.60 | ~ 400 M^−1cm^−1 | 640 | 658
O=C(CCCCC1SCC2NC(=O)NC21)NCCOCCOCCNC(=O)C1C[N+](=c2ccc3c(-c4cc(C(=O)NCCOCCOCCCCCCCl)ccc4C(=O)[O-])c4ccc(N5CCC5)cc4oc-3c2)C1 (centres unmarked) [13HTL, biotin–JF549–HaloTag ligand] | 0.90 | 92,000 M^−1cm^−1 | 552 | 575
CC1(C)C2=CC(=[N+]3CC(C(=O)NCCOCCOCCNC(=O)CCCC[C@@H]4SC[C@@H]5NC(=O)N[C@@H]54)C3)C=CC2=C(c2cc(C(=O)NCCOCCOCCCCCCCl)ccc2C(=O)[O-])c2ccc(N3CCC3)cc21 (some centres unmarked) [14HTL, biotin–JF608–HaloTag ligand] | 0.65 | 92,300 M^−1cm^−1 | 610 | 634
C[Si]1(C)C2=CC(=[N+]3CC(C(=O)NCCOCCOCCNC(=O)CCCC[C@@H]4SC[C@@H]5NC(=O)N[C@@H]54)C3)C=CC2=C(c2cc(C(=O)NCCOCCOCCCCCCCl)ccc2C(=O)[O-])c2ccc(N3CCC3)cc21 (some centres unmarked) [15HTL, biotin–JF646–HaloTag ligand] | 0.56 | 34,000 M^−1cm^−1 | 647 | 666
C[Si]1(C)C2=CC(=[N+]3CC(F)(C(=O)NCCOCCOCCNC(=O)CCCC[C@@H]4SC[C@@H]5NC(=O)N[C@@H]54)C3)C=CC2=C(c2cc(C(=O)NCCOCCOCCCCCCCl)ccc2C(=O)[O-])c2ccc(N3CC(F)C3)cc21 (some centres unmarked) [16HTL, biotin–JF635–HaloTag ligand] | 0.60 | 2,900 M^−1cm^−1 | 636 | 655
